Laboratory results from US20260297083A1, “SUBSTITUTED ACETYLENE COMPOUND DERIVATIVES AND THEIR PHARMACEUTICAL USE” (AVELOS THERAPEUTICS INC., priority 2023, published 2026).

Target: T1, Polθ polymerase domain (amino acids 1792-2590) (Homo sapiens, UniProt O75417)
T1 construct: 10×Histidine-SUMO (N, cleaved yes); made in house; host or cells: E. coli
T1 sequence (O75417 1792-2590): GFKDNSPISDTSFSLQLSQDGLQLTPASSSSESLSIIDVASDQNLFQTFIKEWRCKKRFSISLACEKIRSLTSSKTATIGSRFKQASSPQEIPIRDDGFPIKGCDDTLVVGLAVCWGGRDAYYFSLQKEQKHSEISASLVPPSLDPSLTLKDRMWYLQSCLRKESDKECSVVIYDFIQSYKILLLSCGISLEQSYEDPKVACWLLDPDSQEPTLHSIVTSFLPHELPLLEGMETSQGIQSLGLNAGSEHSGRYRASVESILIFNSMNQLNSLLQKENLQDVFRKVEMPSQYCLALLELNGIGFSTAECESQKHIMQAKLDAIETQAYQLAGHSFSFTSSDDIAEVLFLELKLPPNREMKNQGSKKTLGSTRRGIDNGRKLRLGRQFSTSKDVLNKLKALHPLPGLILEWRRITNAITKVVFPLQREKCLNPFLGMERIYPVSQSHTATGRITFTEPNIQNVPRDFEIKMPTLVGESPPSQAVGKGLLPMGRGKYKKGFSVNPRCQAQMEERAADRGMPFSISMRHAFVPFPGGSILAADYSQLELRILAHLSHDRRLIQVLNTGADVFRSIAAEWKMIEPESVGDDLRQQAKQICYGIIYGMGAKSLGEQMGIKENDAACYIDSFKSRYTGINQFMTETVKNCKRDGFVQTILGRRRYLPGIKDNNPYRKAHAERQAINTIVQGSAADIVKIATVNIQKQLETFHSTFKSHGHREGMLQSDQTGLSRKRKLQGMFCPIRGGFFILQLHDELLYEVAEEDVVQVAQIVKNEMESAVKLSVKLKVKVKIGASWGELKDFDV
Assay: Picogreen assay of Polθ polymerase activity
Format: biochemical
Settings: 12-point concentration response, 90 minutes incubation at room temperature, 8 nM Polθ in 2×polymerase mixture, read-out: PolQ IC50
Description: The DNA sequence of the polQ gene (Genebank ID #NM 199420.4) was chemically synthesized. The DNA sequence encoding the polymerase domain (amino acids 1792-2590) was subcloned into an E. coli expression plasmid, resulting in the fusion of 10×Histidine-SUMO tag at the N terminus of the polymerase domain.
The protein was expressed in E. coli. and purified using a 2-step IMAC (immobilized metal chelate affinity chromatography) procedure. Briefly stated, the overexpressed E. coli lysate was subjected to Ni-NTA purification, and an N-terminal tag was digested by a SUMO protease. Then, the excised fragment of 10×Histidine-SUMO tag was removed using Ni-NTA beads. The resulting protein was used for the Picogreen assay, as described below.
The methods of DNA complex preparation were slightly modified from the protocol previously reported (Zatreanu et al., 2021, Nature Communications, 12:3636). Briefly stated, polθ substrate was prepared by mixing Oligo1 (5′-GCG GCT GTC ATA AG-3′) and Oligo2 (5′-GCTACATTGACAATGGCATCAAATCTCAGATTGCGTCTTATGACAGCCGCG-3′) in an annealing buffer (20 mM Tris-Cl, pH 7.5, 50 mM NaCl) to the final concentration of 22 uM and 20 uM, respectively. The Polθ product was prepared by mixing Oligo3 (5′-CGCGGCTGTCATAAGACGCAATCTGAGATTTGATGCCATTGTCAATGTAGC-3′) and Oligo2 (5′-GCTACATTGACAATGGCATCAAATCTCAGATTGCGTCTTATGACAGCCGCG-3′) to the final concentration of 20 uM. The polθ product was used for the top signal control in the Picogreen assay. Both substrate and product were heated to 95° C. […] and cooled slowly to room temperature.
To evaluate the ability of test compounds to inhibit the activity of polθ in vitro, a Picogreen assay was performed to measure polθ IC50 (nM).
The reactions were performed at room temperature in an assay buffer (25 mM Tris-HCl, pH 7.5, 12.5 mM NaCl, 0.5 mM MgCl2, 5% (v/v) glycerol, 0.01% (v/v) Triton X-100, 0.01% (w/v) Bovine serum albumin, 1 mM DTT). Thirty microliters of 2×polymerase mixture (8 nM Polθ enzyme in an assay buffer) were distributed to 96 well plates, test compounds were prepared by dilution in 100% DMSO to obtain the correct dose range for a 12-point concentration response and 1 μl was dispensed into each well, and then 30 microliters of 2×substrate mix (100 nM DNA and 40 uM dNTPs in an assay buffer) was added. After 90 minutes of incubation, the reaction was stopped and DNA was stained by adding 40 microliters of Picogreen solution (1:80 dilution of Picogreen, Invitrogen, Cat #P7581, 25 mM Tris-HCl, pH 7.5, 10 mM EDTA, pH 7.5).
The fluorescence intensity was measured at excitation/emission=485 nm/520 nm using an Ensight plate reader (Perkin Elmer). The data was analyzed by GraphPad Prism software (Version 8.4.3) to calculate IC50.

Row | Compound | IC50 [nM]
1 | Cc1cc(C(F)(F)F)cc(N2[C@H](C(=O)N(CC#Cc3cnc(S(N)(=O)=O)cn3)c3ccc(F)c(C)c3)CCS2(=O)=O)n1 [compound 65] | > 101
2 | Cc1cc(C(F)(F)F)cc(N2[C@H](C(=O)N(CC#Cc3cncc(S(N)(=O)=O)n3)c3ccc(F)c(C)c3)CCS2(=O)=O)n1 [compound 66] | 51 to 100
3 | Cc1cc(C(F)(F)F)cc(N2[C@H](C(=O)N(CC#Cc3cnc(C(=O)N(C)C)cn3)c3ccc(F)c(C)c3)CCS2(=O)=O)n1 [compound 68] | 1 to 50
4 | Cc1cc(C(F)(F)F)cc(N2[C@H](C(=O)N(CC#Cc3cnc(C(=O)N4CCOCC4)cn3)c3ccc(F)c(C)c3)CCS2(=O)=O)n1 [compound 69] | 1 to 50
5 | Cc1cc(C(F)(F)F)cc(N2[C@H](C(=O)N(CC#Cc3cncc(C(=O)N4CC5CCC(C4)O5)n3)c3ccc(F)c(C)c3)CCS2(=O)=O)n1 [compound 71] | 1 to 50
6 | Cc1cc(C(F)(F)F)cc(N2[C@H](C(=O)N(CC#Cc3cncc(C(=O)N4C[C@H](C)N[C@@H](C)C4)n3)c3ccc(F)c(C)c3)CCS2(=O)=O)n1 [compound 74] | > 101
7 | Cc1cc(C(F)(F)F)cc(N2[C@H](C(=O)N(CC#Cc3cnc(C(N)=O)nc3)c3ccc(F)c(C)c3)CCS2(=O)=O)n1 [compound 78] | 1 to 50
8 | Cc1cc(C(F)(F)F)cc(N2[C@H](C(=O)N(CC#Cc3ncc(C(N)=O)cn3)c3ccc(F)c(C)c3)CCS2(=O)=O)n1 [compound 81] | > 101
9 | Cc1cc(C(F)(F)F)cc(N2[C@H](C(=O)N(CC#Cc3cccc(N4CCOCC4)n3)c3ccc(F)c(C)c3)CCS2(=O)=O)n1 [compound 86] | 1 to 50
10 | Cc1cc(C(F)(F)F)cc(N2[C@H](C(=O)N(CC#Cc3cccc(=O)[nH]3)c3ccc(F)c(C)c3)CCS2(=O)=O)n1 [compound 87] | 51 to 100
11 | Cc1cc(C(F)(F)F)cc(N2[C@H](C(=O)N(CC#Cc3cccc(=O)n3C)c3ccc(F)c(C)c3)CCS2(=O)=O)n1 [compound 92] | 1 to 50
12 | Cc1cc(C(F)(F)F)cc(N2[C@H](C(=O)N(CC#Cc3ccc(F)c(C(C)C)n3)c3ccc(F)c(C)c3)CCS2(=O)=O)n1 [compound 94] | 51 to 100
13 | Cc1cc(C(F)(F)F)cc(N2[C@H](C(=O)N(CC#Cc3ccc(C(N)=O)nc3)c3ccc(F)c(C)c3)CCS2(=O)=O)n1 [compound 95] | 1 to 50
14 | Cc1cc(C(F)(F)F)cc(N2[C@H](C(=O)N(CC#Cc3ccc(C(N)=O)cn3)c3ccc(F)c(C)c3)CCS2(=O)=O)n1 [compound 97] | 1 to 50
15 | Cc1cc(C(F)(F)F)cc(N2[C@H](C(=O)N(CC#Cc3cnc4c(c3)CN(C)C4=O)c3ccc(F)c(C)c3)CCS2(=O)=O)n1 [compound 98] | 1 to 50
16 | Cc1cc(C(F)(F)F)cc(N2[C@H](C(=O)N(CC#Cc3cnc4c(c3)C(=O)N(C)C4=O)c3ccc(F)c(C)c3)CCS2(=O)=O)n1 [compound 100] | 1 to 50
17 | Cc1cc(C(F)(F)F)cc(N2[C@H](C(=O)N(CC#Cc3cncn3C)c3ccc(F)c(C)c3)CCS2(=O)=O)n1 [compound 102] | 1 to 50

Next, values leading:

Row | IC50 [nM] | Compound
18 | 1 to 50 | CNC(=O)c1cnc(C#CCN(C(=O)[C@@H]2CCS(=O)(=O)N2c2cc(C(F)(F)F)cc(C)n2)c2ccc(F)c(C)c2)cn1 [compound 67]
19 | 1 to 50 | Cc1cc(C(F)(F)F)cc(N2[C@H](C(=O)N(CC#Cc3cncc(C(=O)N4CCOCC4)n3)c3ccc(F)c(C)c3)CCS2(=O)=O)n1 [compound 70]
20 | 1 to 50 | Cc1cc(C(F)(F)F)cc(N2[C@H](C(=O)N(CC#Cc3cncc(C(=O)N4CCNCC4)n3)c3ccc(F)c(C)c3)CCS2(=O)=O)n1 [compound 72]
21 | 1 to 50 | Cc1cc(C(F)(F)F)cc(N2[C@H](C(=O)N(CC#Cc3cncc(C(=O)N4CC5CCC(C4)N5)n3)c3ccc(F)c(C)c3)CCS2(=O)=O)n1 [compound 73]
22 | 1 to 50 | Cc1cc(C(F)(F)F)cc(N2[C@H](C(=O)N(CC#Cc3cc(N4CCOCC4)ncn3)c3ccc(F)c(C)c3)CCS2(=O)=O)n1 [compound 75]
23 | 51 to 100 | Cc1cc(C(F)(F)F)cc(N2[C@H](C(=O)N(CC#Cc3cc(N4CCOCC4)nc(C(F)(F)F)n3)c3ccc(F)c(C)c3)CCS2(=O)=O)n1 [compound 76]
24 | 1 to 50 | Cc1cc(C(F)(F)F)cc(N2[C@H](C(=O)N(CC#Cc3cnc(N4CCOCC4)nc3)c3ccc(F)c(C)c3)CCS2(=O)=O)n1 [compound 77]
25 | 1 to 50 | Cc1cc(C(F)(F)F)cc(N2[C@H](C(=O)N(CC#Cc3ncc(N4CCOCC4)cn3)c3ccc(F)c(C)c3)CCS2(=O)=O)n1 [compound 79]
26 | 1 to 50 | Cc1cc(C(F)(F)F)cc(N2[C@H](C(=O)N(CC#Cc3nccc(N4CCOCC4)n3)c3ccc(F)c(C)c3)CCS2(=O)=O)n1 [compound 80]
27 | 51 to 100 | Cc1cc(C(F)(F)F)cc(N2[C@H](C(=O)N(CC#Cc3ncc(C(=O)N4CCOCC4)cn3)c3ccc(F)c(C)c3)CCS2(=O)=O)n1 [compound 82]
28 | 1 to 50 | Cc1cc(C(F)(F)F)cc(N2[C@H](C(=O)N(CC#Cc3ncc(C(=O)N4C5CCC4COC5)cn3)c3ccc(F)c(C)c3)CCS2(=O)=O)n1 [compound 83]
29 | 1 to 50 | Cc1cc(C(F)(F)F)cc(N2[C@H](C(=O)N(CC#Cc3ccc(N4CCOCC4)cn3)c3ccc(F)c(C)c3)CCS2(=O)=O)n1 [compound 84]
30 | 1 to 50 | Cc1cc(C(F)(F)F)cc(N2[C@H](C(=O)N(CC#Cc3ccc(N4CCOCC4)nc3)c3ccc(F)c(C)c3)CCS2(=O)=O)n1 [compound 85]
31 | > 101 | Cc1cc(C(F)(F)F)cc(N2[C@H](C(=O)N(CC#Cc3cccc(OC(C)C)n3)c3ccc(F)c(C)c3)CCS2(=O)=O)n1 [compound 88]
32 | 51 to 100 | Cc1cc(C(F)(F)F)cc(N2[C@H](C(=O)N(CC#Cc3cccc(OC(F)F)n3)c3ccc(F)c(C)c3)CCS2(=O)=O)n1 [compound 89]
33 | 51 to 100 | Cc1cc(C(F)(F)F)cc(N2[C@H](C(=O)N(CC#Cc3cc(C)c(F)c(C)n3)c3ccc(F)c(C)c3)CCS2(=O)=O)n1 [compound 90]
34 | 1 to 50 | Cc1cc(C(F)(F)F)cc(N2[C@H](C(=O)N(CC#Cc3cc(C)c(N)c(C)n3)c3ccc(F)c(C)c3)CCS2(=O)=O)n1 [compound 91]
35 | 1 to 50 | Cc1cc(C(F)(F)F)cc(N2[C@H](C(=O)N(CC#Cc3ccc(F)cn3)c3ccc(F)c(C)c3)CCS2(=O)=O)n1 [compound 93]
36 | 1 to 50 | Cc1cc(C(F)(F)F)cc(N2[C@H](C(=O)N(CC#Cc3cnc(C(N)=O)c(F)c3)c3ccc(F)c(C)c3)CCS2(=O)=O)n1 [compound 96]
37 | 1 to 50 | Cc1cc(C(F)(F)F)cc(N2[C@H](C(=O)N(CC#Cc3cnc4c(c3)C(C)(C)N(C)C4=O)c3ccc(F)c(C)c3)CCS2(=O)=O)n1 [compound 99]
38 | 51 to 100 | Cc1cc(C(F)(F)F)cc(N2[C@H](C(=O)N(CC#Cc3n[nH]c(=O)c4ccccc34)c3ccc(F)c(C)c3)CCS2(=O)=O)n1 [compound 101]
